{"source": "paper PMC3100252", "about": "“A theoretical entropy score as a single value to express inhibitor selectivity” (BMC Bioinformatics, 2011)", "key": {"[1]": {"system": "290 kinases (excluding mutants)", "assay_type": "binding", "settings": "for Ka-Gini: Gini score calculated directly on Kas of the Ambit dataset (Kds of ref 5); for entropies (selectivity entropy, Ssel): calculated from Kds of the Ambit dataset (ref 5), 290 kinases", "source_text": "Having defined the entropy, we next investigated its performance relative to the most widely-used methods, on a public profiling dataset of 38 inhibitors on 290 non-mutant kinases (Table 1 and Additional file 1). […] To this we added a Ka-Gini value and the selectivity entropy. The Ka-Gini is a Gini score directly calculated on Kas, without reverting to %-inhibition values (see below). […] In addition, to get an overview of the profiling raw data, we appended an activity-based heat map (Uitdehaag_S1).\n(§1) It is worth to note that the partition coefficient is the same as ϕl in our entropy equation (eq. 2).\nThe Gini score was calculated from data on %-inhibition. […] In addition, to work more directly with Kds, we also introduce a Ka-Gini score, in which association constants are used for rank-ordering the kinase profile. […] All calculations were done in Microsoft Excel. […]"}, "[2]": {"system": "290 kinases (excluding mutants)", "settings": "cited from earlier work"}, "222 human kinases": {"system": "222 human kinases", "assay": "Millipore kinase profiling (radioactive filter binding activity assay at [ATP] = KM,ATP) and selectivity metrics calculated from it", "assay_type": "biochemical", "parameters": "selectivity score: scale not given here", "settings": "for Ka-Gini score / Pmax / S10x / selectivity score: calculated from Millipore activity data; for selectivity entropy: calculated from Millipore activity data (pEC50), [ATP] = KM,ATP", "source_text": "As a next step we selected 16 compounds from the public profile (Ambit), and measured activity data on these using a different profiling service (Millipore, data available as Additional file 2). […] Also for these new data, we calculated the selectivity metrics (Uitdehaag_S2). In the ideal case, the selectivity values are similar irrespective of profiling technology (in the same way that a Kd value is ideally independent of laboratory and assay format). The data of both methods are plotted in Figure 2.\nas §1\nThe Gini score was calculated from data on %-inhibition. […] In addition, to work more directly with Kds, we also introduce a Ka-Gini score, in which association constants are used for rank-ordering the kinase profile. […] All calculations were done in Microsoft Excel.\nFor comparing profiles across methods (Figure 2), we selected 16 kinase inhibitors of the Ambit profile (Table 2) and submitted these to the kinase profiling service from Millipore (http://www.millipore.com/drugdiscovery/svp3/kpservices, data available as Additional file 2). Both profiling methods are described earlier and differ (among other variations) in the following way: Ambit uses a competitive binding setup in absence of ATP on kinases from T7 or HEK293 expression systems. Millipore uses a radioactive filter binding activity assay, with kinases purified from Escherichia coli or baculovirus expression systems."}, "[3]": {"settings": "Ambit dataset, 38 inhibitors on 290 non-mutant kinases, values taken from earlier work"}, "[4]": {"settings": "Ambit dataset, fraction of kinases hit at 10 times the Kd of the target, values taken from earlier work"}, "[5]": {"settings": "Ambit dataset, values taken from earlier work"}, "[6]": {"settings": "Ambit dataset, fraction of kinases hit below 3 μM, values taken from earlier work"}}, "note": "Read-outs that look alike come from different tables or passages of the source.", "data": [{"smiles": "CC1(C)CNc2cc(NC(=O)c3cccnc3NCc3ccncc3)ccc21", "note": "[AMG-706]", "values": [{"measurement": "Ka-Gini", "setting": "[1]", "value": 0.97}, {"measurement": "entropies (selectivity entropy, Ssel)", "setting": "[1]", "value": 2.36}, {"measurement": "Gini", "setting": "[2]; [3]", "value": 0.82}, {"measurement": "S10x", "setting": "[2]; [4]", "value": 0.04}, {"measurement": "Pmax (partition index)", "setting": "[2]; [5]", "value": 0.22}, {"measurement": "S3uM (selectivity score S(3 μM))", "setting": "[2]", "value": 0.09}]}, {"smiles": "CCN1CCN(Cc2ccc(NC(=O)Nc3ccc(Oc4cc(NC)ncn4)cc3)cc2C(F)(F)F)CC1", "note": "[AST-487]", "values": [{"measurement": "Ka-Gini", "setting": "[1]", "value": 0.95}, {"measurement": "entropies (selectivity entropy, Ssel)", "setting": "[1]", "value": 2.74}, {"measurement": "Gini", "setting": "[2]; [3]", "value": 0.73}, {"measurement": "S10x", "setting": "[2]; [4]", "value": 0.04}, {"measurement": "S3uM (selectivity score S(3 μM))", "setting": "[2]; [6]", "value": 0.45}, {"measurement": "Pmax (partition index)", "setting": "[2]; [5]", "value": 0.11}]}, {"smiles": "Cn1cnc2c(F)c(Nc3ccc(Br)cc3Cl)c(C(=O)NOCCO)cc21", "note": "[AZD6244]", "values": [{"measurement": "Ka-Gini score", "setting": "222 human kinases", "value": 1.000}, {"measurement": "Pmax", "setting": "222 human kinases", "value": 0.999}, {"measurement": "S10x", "setting": "222 human kinases", "value": 0.002}, {"measurement": "selectivity entropy", "setting": "222 human kinases", "value": 0.020}]}, {"smiles": "CN1CCN(c2ccc3nc(-c4c(N)c5c(F)cccc5[nH]c4=O)[nH]c3c2)CC1", "note": "[CHIR-258]", "values": [{"measurement": "Ka-Gini", "setting": "[1]", "value": 0.97}, {"measurement": "Gini", "setting": "[2]; [3]", "value": 0.76}, {"measurement": "S10x", "setting": "[2]; [4]", "value": 0.01}]}, {"smiles": "C=CC(=O)Nc1cc2c(Nc3ccc(F)c(Cl)c3)ncnc2cc1OCCCN1CCOCC1", "note": "[CI-1033]", "values": [{"measurement": "Ka-Gini", "setting": "[1]", "value": 0.99}, {"measurement": "Gini", "setting": "[2]; [3]", "value": 0.72}]}, {"smiles": "C[C@@H]1CCN(C(=O)CC#N)C[C@@H]1N(C)c1ncnc2[nH]ccc12", "note": "[CP-690550, tasocitinib]", "values": [{"measurement": "Ka-Gini score", "setting": "222 human kinases", "value": 0.995}, {"measurement": "Pmax", "setting": "222 human kinases", "value": 0.481}, {"measurement": "S10x", "setting": "222 human kinases", "value": 0.005}, {"measurement": "Gini", "setting": "[2]; [3]", "value": 0.66}]}, {"smiles": "COCC(=O)NC/C=C/c1ccc2ncnc(Nc3ccc(Oc4ccc(C)nc4)c(C)c3)c2c1", "note": "[CP-724714]", "values": [{"measurement": "Ka-Gini", "setting": "[1]", "value": 0.99}, {"measurement": "entropies (selectivity entropy, Ssel)", "setting": "[1]", "value": 1.10}, {"measurement": "Gini", "setting": "[2]; [3]", "value": 0.49}, {"measurement": "S10x", "setting": "[2]; [4]", "value": 0.01}, {"measurement": "S3uM (selectivity score S(3 μM))", "setting": "[2]; [6]", "value": 0.02}, {"measurement": "Pmax (partition index)", "setting": "[2]; [5]", "value": 0.33}]}, {"smiles": "CCOc1cc2ncc(C#N)c(Nc3ccc(F)c(Cl)c3)c2cc1NC(=O)/C=C/CN(C)C", "note": "[EKB-569]", "values": [{"measurement": "Ka-Gini", "setting": "[1]", "value": 0.99}, {"measurement": "entropies (selectivity entropy, Ssel)", "setting": "[1]", "value": 0.89}, {"measurement": "Gini", "setting": "[2]; [3]", "value": 0.78}, {"measurement": "S10x", "setting": "[2]; [4]", "value": 0.00}, {"measurement": "S3uM (selectivity score S(3 μM))", "setting": "[2]; [6]", "value": 0.18}, {"measurement": "Pmax (partition index)", "setting": "[2]; [5]", "value": 0.67}]}, {"smiles": "C#Cc1cccc(Nc2ncnc3cc(OCCOC)c(OCCOC)cc23)c1", "note": "[Erlotinib]", "values": [{"measurement": "Ka-Gini", "setting": "[1]", "value": 0.99}, {"measurement": "entropies (selectivity entropy, Ssel)", "setting": "[1]", "value": 0.88}, {"measurement": "Gini", "setting": "[2]; [3]", "value": 0.75}, {"measurement": "S10x", "setting": "[2]; [4]", "value": 0.00}, {"measurement": "Pmax (partition index)", "setting": "[2]; [5]", "value": 0.67}, {"measurement": "S3uM (selectivity score S(3 μM))", "setting": "[2]", "value": 0.15}]}, {"smiles": "CN1CC[C@H](c2c(O)cc(O)c3c(=O)cc(-c4ccccc4Cl)oc23)[C@H](O)C1", "note": "[Flavopiridol]", "values": [{"measurement": "Ka-Gini", "setting": "[1]", "value": 0.95}, {"measurement": "Gini", "setting": "[2]; [3]", "value": 0.77}]}, {"smiles": "COc1cc2ncnc(Nc3ccc(F)c(Cl)c3)c2cc1OCCCN1CCOCC1", "note": "[Gefitinib]", "values": [{"measurement": "Gini", "setting": "[2]; [3]", "value": 0.65}]}, {"smiles": "Cc1ccc(NC(=O)c2ccc(CN3CCN(C)CC3)cc2)cc1Nc1nccc(-c2cccnc2)n1", "note": "[Imatinib, imatinib]", "values": [{"measurement": "Gini", "setting": "[2]", "value": 0.79}, {"measurement": "S10x", "setting": "[2]", "value": 0.02}]}, {"smiles": "O=C(NOC[C@H](O)CO)c1ccc(F)c(F)c1Nc1ccc(I)cc1F", "note": "[PD-0325901]", "values": [{"measurement": "Ka-Gini score", "setting": "222 human kinases", "value": 1.000}, {"measurement": "Pmax", "setting": "222 human kinases", "value": 0.857}, {"measurement": "S10x", "setting": "222 human kinases", "value": 0.002}, {"measurement": "selectivity score", "setting": "222 human kinases", "value": 0.005}, {"measurement": "selectivity entropy", "setting": "222 human kinases", "value": 0.550}]}, {"smiles": "Clc1ccc(Nc2nnc(Cc3ccncc3)c3ccccc23)cc1", "note": "[PTK-787]", "values": [{"measurement": "Gini", "setting": "[2]", "value": 0.71}]}, {"smiles": "C[S+]([O-])c1ccc(-c2nc(-c3ccncc3)c(-c3ccc(F)cc3)[nH]2)cc1", "note": "(stereo not shown) [SB-203580]", "values": [{"measurement": "Ka-Gini score", "setting": "222 human kinases", "value": 0.987}, {"measurement": "Pmax", "setting": "222 human kinases", "value": 0.342}, {"measurement": "S10x", "setting": "222 human kinases", "value": 0.016}, {"measurement": "Gini", "setting": "[2]; [3]", "value": 0.77}, {"measurement": "S10x", "setting": "[2]; [4]", "value": 0.02}]}, {"smiles": "CC(C)(C)c1cnc(CSc2cnc(NC(=O)C3CCNCC3)s2)o1", "note": "[SNS-032]", "values": [{"measurement": "Ka-Gini", "setting": "[1]", "value": 0.97}]}, {"smiles": "CN[C@@H]1C[C@H]2O[C@@](C)([C@@H]1OC)n1c3ccccc3c3c4c(c5c6ccccc6n2c5c31)C(=O)NC4", "note": "[Staurosporine]", "values": [{"measurement": "Gini", "setting": "[2]; [3]", "value": 0.35}, {"measurement": "S10x", "setting": "[2]; [4]", "value": 0.50}]}, {"smiles": "Cc1cn(-c2cc(NC(=O)c3ccc(C)c(Nc4nccc(-c5cccnc5)n4)c3)cc(C(F)(F)F)c2)cn1", "note": "[nilotinib]", "values": [{"measurement": "Ka-Gini score", "setting": "222 human kinases", "value": 0.980}, {"measurement": "Pmax", "setting": "222 human kinases", "value": 0.208}, {"measurement": "S10x", "setting": "222 human kinases", "value": 0.027}, {"measurement": "selectivity score", "setting": "222 human kinases", "value": 0.095}, {"measurement": "selectivity entropy", "setting": "222 human kinases", "value": 2.360}]}]}
